Measured values taken from US8057829B2, “Methods for repelling insects using sesquiterpene hydrocarbons and their derivatives” (Sterling International Inc., priority 2008, dated 2011).

Test system: antennae of Musca domestica, Lucillia sericata, Sarcophaga sp., Muscina stabulans, Culex pipiens, Aedes increpitus
Experiment: GC-EAD responses of several flies and two mosquitoes to a synthetic mixture
Conditions: about 100 ng of each compound, FIG. 6
Protocol: The GC-EAD responses of several species of flies and two species of mosquito antennae were tested on a synthetic mixture of 1-octen-3-ol, linalool, two representative sesquiterpene hydrocarbons, β-caryophyllene and α-humulene, ZE-nepetalactone, EZ-nepetalactone, and two known insect repellents, DEET, and SS220, with about 100 ng of each compound in the mixture. DEET and SS220 are used as positive controls in the experiment. The compound 1-octen-3-ol is a known attractant for the insects and is also used as a positive control. The insects tested are species of Musca domestica, Lucillia sericata, Sarcophaga sp., Muscina stabulans, Culex pipiens, and Aedes increpitus.
The following procedures were employed to test the EAD response of an insect antenna to a repellent compound. The GC-EAD technique provides an efficient tool for screening behaviorally active repellents. Several synthetic mixtures of potential insect repellent candidates, mostly sesquiterpene hydrocarbons and derivatives, were analyzed in splitless mode using a Varian CP-3800 GC equipped with a polar column (Innowax; 1.0 μm film thickness, 30 m×0.53 mm ID; J & W Scientific), and a 1:1 effluent splitter that allowed simultaneous flame ionization detection (FID) and EAD of the separated volatile compounds. Helium was used as the carrier gas, and the injector temperature was 220° C. The column temperature was 50° C. for 2 min, rising to 240° C. at 10° C./min, then held for 10 min. The outlet for the EAD was held in a humidified air stream flowing at 0.5 liter/min. over an antennal preparation. A glass capillary indifferent electrode filled with Beadle-Ephrussi Ringer, and grounded via a silver wire, was inserted into the severed insect's head with the antennae. A similar recording electrode connected to a high-impedance DC amplifier with automatic baseline drift compensation was placed in contact with the distal end of one antenna (Zhang et al., Chemoecology, 10:69-80 (2000)). The antennal signals were stored and analyzed on a PC equipped with a serial IDAC interface box and the program EAD ver. […]

C=C1CC/C=C(\C)CC[C@@H]2[C@@H]1CC2(C)C [β-Caryophyllene, β-caryophyllene]
GC-EAD antennal activity: active on at least one of the insects tested
